Results from patent US20180147153A1, “PROCESS FOR MAKING A COATED DOSAGE FORM” (Johnson & Johnson Consumer Inc., priority 2016, published 2018).

Columns and labels:
Assay type in all cases: physicochemical
[1] = Dielectric properties (e′, e″, loss tangent, Q value) by Slotted Line Method
From the text: The property of permittivity is the measure of the resistance to forming an electric field. For purposes of comparing materials in air, it is often convenient to describe the permittivity of material in air where the permittivity is more specifically called “relative permittivity” or €r. This is a complex number represented by the following equation: […]
where e′ (the real portion of the complex number) is the dielectric constant (energy storage) and e″ (the imaginary portion of the complex number) is the dielectric loss or dissipation factor (energy dissipated as heat). The ratio of dielectric loss (e″) over the dielectric constant (e′) is called the loss tangent (tan δ) or power factor.
For purposes of this invention, the Q value is calculated for the frequency that the material is to be processed (e.g., 27 MHz). The Q value is affected by physical and chemical properties such as density (porosity/particle size), moisture (conductivity), temperature, and molecular polarizability. The measurements obtained by this method can eliminate the need to measure and evaluate these properties independently.
This process is referred to as the “Slotted Line Method.” Unless otherwise stated, the Slotted line method was used for the calculation of e′, e″, and Q value herein with the frequency range set to 26-28 MHz (31 points resolution) and values of e′ and e″ were recorded from the 27 MHz data point.

Water activity = settings: Table 1b
[2] = Loss on drying (moisture); settings: Table 1b
Procedure: In one embodiment, the lossy coated particle contains water. In this embodiment, the lossy coated particle comprises at least 0.1 percent, by weight, water, such as at least 0.3 percent, by weight, water, such as at least 0.5 percent, by weight, water when measured using loss on drying at 105° C. until the weight of the lossy coated particles has stabilized. In one embodiment, the lossy coated particle retains water when measured by loss on drying prior to sintering, such as moisture content of at least 0.1 percent by weight, such as from about 0.1 to about 3 percent, such as from about 0.5 to about 2 percent, by weight.

[3] = Table 1b, surface stabilizing agents, 27 MHz

e′ ([1]; Table 1a, dielectric constant, 27 MHz data point, Slotted Line Method)	e″ ([1]; Table 1a, dielectric loss, 27 MHz data point, Slotted Line Method)	Loss Tangent ([1]; Table 1a, e″/e′, 27 MHz)	Water Activity (Water activity)	e′ [1, 3]	e″ [1, 3]	Loss on Drying @ 105° C. [2]	SMILES
1.6214	0.0035	0.0022					OC[C@@H](O)[C@@H](O[C@H]1O[C@H](CO)[C@@H](O)[C@H](O)[C@H]1O)[C@H](O)[C@@H](O)CO [Maltitol (SweetPearl DC300), Maltitol]
			0.1935	1.5185	0.0007	0.137	OC[C@H]1O[C@H](O[C@H]2O[C@H](CO)[C@@H](O)[C@H](O)[C@H]2O)[C@H](O)[C@@H](O)[C@@H]1O [Trehalose]
			0.453	1.751	0.010	0.035	OC[C@@H](O)[C@H](O)[C@@H](O)CO [Xylitol (Xylitab ® 100), Xylitol]
